These results are taken from US7875599B2, “C-17-heteroaryl steroidal CYP17 inhibitors/antiandrogens, in vitro biological activities, pharmacokinetics and antitumor activity” (University of Maryland, priority 2005, dated 2011).

Series [1] concerns the target T1, CYP17 (Homo sapiens, UniProt P05093).
T1 sequence (P05093 1-508): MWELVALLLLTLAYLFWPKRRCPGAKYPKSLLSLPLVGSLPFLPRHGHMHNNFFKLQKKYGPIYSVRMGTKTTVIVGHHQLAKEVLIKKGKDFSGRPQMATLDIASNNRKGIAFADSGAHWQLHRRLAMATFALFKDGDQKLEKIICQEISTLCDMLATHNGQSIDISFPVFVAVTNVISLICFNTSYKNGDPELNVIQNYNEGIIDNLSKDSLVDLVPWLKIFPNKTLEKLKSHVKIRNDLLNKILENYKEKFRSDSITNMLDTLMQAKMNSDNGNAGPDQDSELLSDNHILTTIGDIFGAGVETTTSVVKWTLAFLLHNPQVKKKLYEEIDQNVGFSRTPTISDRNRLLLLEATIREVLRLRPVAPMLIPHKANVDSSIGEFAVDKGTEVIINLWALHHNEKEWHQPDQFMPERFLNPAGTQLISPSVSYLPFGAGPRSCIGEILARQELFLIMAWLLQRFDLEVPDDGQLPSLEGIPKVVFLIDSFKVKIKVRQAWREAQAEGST
The experiment in a line: CYP17 inhibition, acetic acid releasing assay with intact P450c17-expressing E. coli.

A further series has as its system LNCaP cells. The series can be described thus: LNCaP cell growth, WST-1 viability assay. On the technique in general: Tetrazolium dyes change colour on reduction, which living cells bring about.
The subject of another series is LAPC4 cells. The experiment in a line: LAPC4 cell growth, WST-1 viability assay.
For series [2], the system named is LNCaP mutant AR-mediated transcription. The series can be described thus: Luciferase transactivation assay in LNCaP cells transfected with ARR2-Luc. The note with it: 18 h.
Procedure: Luciferase Transactivation Assay: Transcriptional activation assay is carried out as described previously by Kim et al., above, with minor modifications. […] The pRL-null (Promega) is used as the internal control. […] Luciferase activities are measured in triplicates by using dual luciferase assay system according to the manufacturer's instruction (Promega).
The bars represent the mean light units [counts per second (cps)/unit protein, i.e., relative luciferase activity] in triplicate wells from three separate experiments.
The target of series [3] is T2, human 5α-reductase type 1 (Homo sapiens, UniProt P18405).
T2 sequence (P18405 1-259): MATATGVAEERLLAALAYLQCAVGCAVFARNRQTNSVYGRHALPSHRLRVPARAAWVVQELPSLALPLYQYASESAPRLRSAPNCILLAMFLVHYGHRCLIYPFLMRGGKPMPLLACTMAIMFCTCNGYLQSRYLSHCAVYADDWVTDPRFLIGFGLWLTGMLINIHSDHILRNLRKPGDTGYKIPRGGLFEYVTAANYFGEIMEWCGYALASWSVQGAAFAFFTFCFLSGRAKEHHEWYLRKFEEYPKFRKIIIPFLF
The series can be described thus: Human 5α-reductase type 1 assay (DU-145 cell line).

The target in series [4] is T3, human 5α-reductase type 2 (Homo sapiens, UniProt P31213).
T3 sequence (P31213 1-254): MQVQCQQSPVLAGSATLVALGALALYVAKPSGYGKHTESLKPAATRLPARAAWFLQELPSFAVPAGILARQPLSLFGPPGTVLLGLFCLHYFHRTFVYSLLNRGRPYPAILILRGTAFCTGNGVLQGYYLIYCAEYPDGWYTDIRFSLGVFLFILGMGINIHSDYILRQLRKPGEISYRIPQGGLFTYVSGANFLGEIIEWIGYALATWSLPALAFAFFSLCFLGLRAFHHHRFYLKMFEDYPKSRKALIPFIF
The series can be described thus: Human 5α-reductase type 2 assay (BPH tissue homogenate). The note with it: for inhibition at 10 µM: read-out: 5α-Reductase type 2 % inhibition at 10 μM.

For series [5], the target named is T1, CYP17. The series can be described thus: UV-vis difference spectroscopy, binding to heme iron of CYP17. On the set-up: peak position of Soret maximum of the enzyme complex: unit not given here.
Series [6] has as its system LAPC4 human prostate tumor xenograft. The experiment in a line: LAPC4 xenograft, second experiment (treatment from day after inoculation). In kind it is in vivo, mouse. The source says:
The second in vivo experiment tests the ability of 5 to inhibit the growth of LAPC4 prostate cancer cells growing in SCID mice, and 16 (Chart 1), a previously identified potent CYP17 inhibitor/antiandrogen (Gregoriyev et al. and Njar et al., J. Med. Chem., 1998, 41, 902-912, above) and castration are used as reference treatments. In this experiment, treatment begins on the day that mice were inoculated subcutaneously with hormone-dependent LAPC4 cells and are castrated or injected sc twice daily with 5 or 16.
In Vivo Antitumor Studies (LAPC-4 Prostate Cancer Xenografts): All animal studies are performed according to the guidelines and approval of the Animal Care Committee of the University of Maryland School of Medicine, Baltimore. Male severe combined immunodeficient (SCID) mice 4-6 weeks of age purchased from the National Cancer Institute-Frederick Cancer Research and Development Center (Fredrick, Md.) are housed in a pathogen-free environment under controlled conditions of light and humidity and allowed free access to food and water. Tumors are developed from LAPC4 cells inoculated subcutaneously (s.c.) in the mice essentially as previously described (21). LAPC4 cells are grown in IMEM with 15% FBS plus 1% PS and 10 nm DHT until 80% confluent. Cells are scraped into DPBS, collected by centrifugation, and resuspended in Matrigel (10 mg/ml) at 3×10^7 cells/ml. Mice are injected s.c. with 100 μl of the cell suspension at one site on each flank. Tumors are measured weekly with calipers, and tumor volumes are calculated by the formula: […]).
In the second experiment, mice are inoculated with LAPC4 cells and are divided into four groups of 5 mice each. The control and castrated group receiv vehicle, while the other two groups receiv either VN/85-1 (0.15 mmol/kg twice-daily, 9 a.m. and 5 p.m.) or 5 (0.15 mmol/kg twice-daily, 9 a.m. and 5 p.m.). These treatments are initiated one day after LAPC4 cell inoculation; continued for 14 weeks for control group, 19 weeks (for VN/85-1 and castration groups) and for 21 weeks for 5 treated group and tumors are measured and processed as described above.
FIG. 7: The effects of 5, 16, and orchidectomy on the formation and growth of LAPC4 prostate tumors in male SCID mice. 3×10^7 LAPC-4 cells were injected s.c. into the dorsal flank of SCID mice. One group of mice was castrated. The other groups of mice received either vehicle or 5 (0.15 mmol/kg twice-daily) or 16 (0.15 mmol/kg twice-daily). Daily treatment with 5 or 16 was initiated 1 day after cell inoculation. Tumors volumes were measured weekly, and the percentage of change in tumor volume was determined after 16 weeks of treatment * Indicates significant difference of 5 versus control, castration and 16 at week 14 (P 0.00065, 0.05 and 0.0097, respectively). ** Indicates significant difference of 5 versus castration and 16 at week 16 (P=0.047 and 0.0047, respectively). ↓-↓↓: Period of reduced administered dose of 5.

[7] abbreviates: read-out: CYP17 IC50, intact P450c17-expressing E. coli, substrate [21-3H]-17α-hydroxypregnenolone.

Where two headings read alike, the source gives them in different places.

Procedure for LAPC4 cells: To determine the effect of novel compounds on cell proliferation, cells are transferred into steroid-free medium three days prior to the start of the experiments. Steroid-free medium consisted of phenol red free RPMI supplemented with 5% dextran-coated, charcoal treated serum, and 1% penicillin/streptomycin solution. Growth studies are then performed by plating cells (3×10^4) in 24-well multi-well dishes (Corning, Inc. Corning, N.Y.). After a 24 hours attachment period, the medium is aspirated and replaced with steroid-free medium containing vehicle or the indicated concentration of DHT (1 nM) and compounds (0.1 μM-10 μM). Control wells are treated with vehicle (ethanol). This medium is changed every three days and the number of viable cells is compared by WST-1 [4-[3-(4-iodophenyl)-2-(4-nitrophenyl)-2H-5-tetrazolio]-1,3-benzene disulfonate] assay on the seventh day. Following incubation of cells for the above-mentioned time, 10% WST-1 solution is added to each well and incubated at 37° C. for three hours. Following incubation, plates are slightly shaken and immediately read at 450 nm with a scanning multi-well spectrophotometer. All results represent the average of a minimum of three wells. Additional control consists of medium alone with no cells.
Cells were grown in steroid-free medium before plating.

`C[C@]12CC[C@H](O)CC1=CC[C@@H]1[C@@H]2CC[C@]2(C)C(c3cccnc3)=CC[C@@H]12` [Abiraterone, reference compound] registered an IC50 on CYP17 [1] of 0.8 µM.

Turning to `CC(O)(CS(=O)(=O)c1ccc(F)cc1)C(=O)Nc1ccc(C#N)c(C(F)(F)F)c1` (stereo not shown) [Casodex], the IC50 in the series on LNCaP cells (Homo sapiens, LNCaP, 168 h, read-out: IC50, inhibition of DHT-induced LNCaP cell proliferation, 1 nM DHT, 7 days, WST-1) turned out to be 8.6 µM; in the series with LAPC4 cells (Homo sapiens, LAPC4, 168 h, read-out: IC50, inhibition of LAPC4 cell proliferation, 10 nM DHT, 7 days, WST-1), 10 µM. The “effect on luciferase activity, compound alone” value in [2] (0.1 and 10.0 μM, without DHT) is recorded as “no effect”. Further, in series [2] (with 1.0 nM DHT), the “effect on luciferase expression induced by 1.0 nM DHT” value is reported as “decreased in a concentration-dependent manner”.

Turning to `C[C@]12CC[C@H](O)CC1=CCC1C2CC[C@]2(C)C(n3nnc4ccccc43)=CCC12` (stereo partly drawn) [Compound 9, 3β-Hydroxy-17-(benzo-1H-1,2,3-triazol-1-yl)androsta-5,16-diene], the melting point (commonly the temperature, or range, at which the solid turns liquid) was 241 to 244 °C. Also, the “5α-Reductase type 1 % inhibition at 10 μM” value in series [3] (10 μM, DU-145 cells, substrate 5 nM [1β-3H]androstenedione) is on record as “ni^f”. The IC50 at CYP17 [1] (setting [7]) amounted to 1.25 µM. Moreover, in [4], the inhibition (in general, the drop in the measured response relative to a control, in per cent) at 10 µM came out at 17%. Further, at CYP17 [5], the “peak position of Soret maximum of the enzyme complex” value is listed as 426 and the “type of difference spectrum induced” value is “type II difference spectrum”.

The compound `C[C@]12CCC(=O)C=C1CCC1C2CC[C@]2(C)C(n3nnc4ccccc43)=CCC12` (stereo partly shown) [Compound 10, 17-(benzo-1H-1,2,3-triazol-1-yl)androsta-4,16-diene-3-one] had a melting point of 280 to 283 °C. Further, the inhibition at 10 µM in series [3] (read-out: 5α-Reductase type 1 % inhibition at 10 μM) was found to be 21%. Also, the IC50 on CYP17 [1] (setting [7]) turned out to be 5.82 µM. Also, the inhibition at 10 µM in series [4] turned out to be 56%.

Take `C[C@]12CC[C@H](O)CC1=CCC1C2CC[C@]2(C)C(c3cnccn3)=CCC12` (stereo partly drawn) [Compound 14, 3β-Hydroxy-17-(2-pyrazyl)-androsta-5,16-diene]: the IC50 at CYP17 [1] (setting [7]) stood at 3.81 µM.

The compound `C[C@]12CC[C@H](O)CC1=CC[C@@H]1[C@@H]2CC[C@]2(C)C(c3cncnc3)=CC[C@@H]12` [Compound 15, 3β-Hydroxy-17-(5-pyrimidyl)-androsta-5,16-diene] returned a melting point of 231 to 233 °C. For the same compound, the IC50 against CYP17 [1] was 0.5 µM.

Consider `C[C@]12CCC(=O)C[C@@H]1CC[C@@H]1[C@@H]2CC[C@]2(C)[C@@H](O)CC[C@@H]12` [DHT, dihydrotestosterone], for which, in the series on LNCaP cells (1 nM), the “stimulation of LNCaP cell proliferation compared to vehicle-treated cells” value is reported as “about 2 fold”. In the series on LAPC4 cells (10 nM), the “induction of LAPC4 cell proliferation” value is “does not significantly induce cell proliferation”. Besides, in series [2] (1.0 nM), the “increase of luciferase expression” value is “approximately 99.6 fold”.

With `CC(C)(C)NC(=O)[C@H]1CC[C@H]2[C@@H]3CC[C@H]4NC(=O)C=C[C@]4(C)[C@H]3CC[C@]12C` [Finasteride, reference compound], the IC50 in series [3] (read-out: 5α-Reductase type 1 [IC50], DU-145 cells, values in square brackets) is 0.06 µM; in series [4] (read-out: 5α-Reductase type 2 [IC50], BPH tissue enzyme, values in square brackets), 0.002 µM.

As for `C[C@]12CC[C@H](O)CC1=CC[C@@H]1[C@@H]2CC[C@]2(C)C(n3ccnc3)=CC[C@@H]12` [VN/85-1, 3β-hydroxy-17-(1H-imidazole-1-yl)androsta-5,16-diene], the “times more potent than 5 in CYP17 inhibition” value on CYP17 [1] came to 6 times. Moreover, at CYP17 [1] (setting [7]), the IC50 stood at 0.05 µM. Further, the “week of therapy at which palpable and measurable tumors develop” value in series [6] (0.15 mmol/kg twice-daily) was 11 week. Further, the “increase of tumor volume” value in series [6] (0.15 mmol/kg twice-daily s.c., week 14) is recorded as 3.7 fold. In addition, in series [6] (0.15 mmol/kg twice-daily s.c., week 14 (b4 prints 50 mg/kg/twice daily)), the “reduction of tumor volume versus control mice” value was determined as 53.8%.
